Article PMC8828861 (Communications Biology, 2022)

Tests used:
[1] = molecular target: M. tuberculosis Rho (MtbRho) (Mycobacterium tuberculosis, UniProt P9WHF3); assay type: binding
[2] = molecular target: the molecule itself; assay: SEC-MALS

Sequence of M. tuberculosis Rho (MtbRho) (P9WHF3 whole entry): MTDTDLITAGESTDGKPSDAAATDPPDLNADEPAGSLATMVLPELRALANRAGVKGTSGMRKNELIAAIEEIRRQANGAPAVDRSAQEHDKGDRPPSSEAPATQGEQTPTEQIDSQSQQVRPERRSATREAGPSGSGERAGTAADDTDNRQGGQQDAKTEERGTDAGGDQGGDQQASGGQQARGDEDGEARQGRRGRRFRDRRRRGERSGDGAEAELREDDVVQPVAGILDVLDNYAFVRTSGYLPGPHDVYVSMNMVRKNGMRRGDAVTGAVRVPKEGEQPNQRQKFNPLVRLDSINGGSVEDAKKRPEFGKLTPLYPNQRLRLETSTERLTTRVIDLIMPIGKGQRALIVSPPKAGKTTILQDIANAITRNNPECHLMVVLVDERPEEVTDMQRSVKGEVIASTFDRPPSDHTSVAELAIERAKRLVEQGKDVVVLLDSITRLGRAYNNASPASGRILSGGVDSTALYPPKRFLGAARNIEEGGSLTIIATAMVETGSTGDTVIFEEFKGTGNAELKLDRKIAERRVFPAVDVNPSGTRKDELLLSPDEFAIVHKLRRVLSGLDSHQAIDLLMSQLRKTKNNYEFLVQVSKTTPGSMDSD

Molecule	cryo-EM structure, 3.3 Å, 6 ATP per hexamer [1]	stoichiometry N [2]
Nc1ncnc2c1ncn2[C@@H]1O[C@H](COP(=O)(O)OP(=O)(O)OP(=O)(O)O)[C@@H](O)[C@H]1O [ATP]	clear electron density in all the ATPase pockets of MtbRho reveals that ATP ligands are held by a network	–
Mycobacterium tuberculosis transcription termination factor Rho (enzyme, also called MtbRho; WT MtbRho) TDTDLITAGESTDGKPSDAAATDPPDLNADEPAGSLATMVLPELRALANRAGVKGTSGMRKNELIAAIEEIRRQANGAPAVDRSAQEHDKGDRPPSSEAPATQGEQTPTEQIDSQSQQVRPERRSATREAGPSGSGERAGTAADDTDNRQGGQQDAKTEERGTDAGGDQGGDQQASGGQQARGDEDGEARQGRRGRRFRDRRRRGERSGDGAEAELREDDVVQPVAGILDVLDNYAFVRTSGYLPGPHDVYVSMNMVRKNGMRRGDAVTGAVRVPKEGEQPNQRQKFNPLVRLDSINGGSVEDAKKRPEFGKLTPLYPNQRLRLETSTERLTTRVIDLIMPIGKGQRALIVSPPKAGKTTILQDIANAITRNNPECHLMVVLVDERPEEVTDMQRSVKGEVIASTFDRPPSDHTSVAELAIERAKRLVEQGKDVVVLLDSITRLGRAYNNASPASGRILSGGVDSTALYPPKRFLGAARNIEEGGSLTIIATAMVETGSTGDTVIFEEFKGTGNAELKLDRKIAERRVFPAVDVNPSGTRKDELLLSPDEFAIVHKLRRVLSGLDSHQAIDLLMSQLRKTKNNYEFLVQVSKTTPGSMDSD	–	6
